Assay results as given in a melting point compilation (Tetko et al.; mined from patent text by program, amines drawn as free bases though some values may be those of a salt).

Row | SMILES | melting point [°C]
1 | Cc1cc2oc(=O)c3c(c2cc1C)CCN(CCN1CC2CCC(CC2)C1)C3 | 174 to 175
2 | CCOC(=O)CCC(=O)c1c(COC(C)=O)c(COC(C)=O)cc2cc(OC)c(OC)cc12 | 85 to 87
3 | O=[N+]([O-])c1ccccc1-c1ccno1 | 66 to 69
4 | CC(C)SC(=O)Cc1cc(Oc2ccc(C(F)(F)F)cc2Cl)ccc1[N+](=O)[O-] | 102 to 104
5 | COc1ccc2c(c1)C(=O)N(c1ccc3ncccc3c1)C2 | 194 to 197
6 | CN(C)c1ccc(NS(=O)(=O)c2cccc(Br)c2)cc1 | 187 to 189
7 | CS(=O)(=O)c1ccc(-c2cc(CO)sc2-c2ccc(F)cc2)cc1 | 140 to 142
8 | O=S1(=O)N=CN(C2CC2)c2c(F)cc(F)c(F)c21 | 166 to 168
9 | CC(=O)NC1CCC(Nc2ncc3c(N)cc(=O)n(CCCO)c3n2)CC1 (stereo unspecified) | > 300
10 | O=C(O)C(=NOCc1ccc(F)cc1)c1csc(NC(=O)C(F)(F)F)n1 | 180 to 182
11 | N#Cc1nn(-c2c(Cl)cc(C(F)(F)F)cc2Cl)c(N)c1-c1ccoc1 | 180 to 181
12 | CCN(C(C)C)C(C)CC1=C(c2ccc(OC)cc2)CCCNC1=O (stereo unspecified) | 64 to 66
13 | C[C@H]1Cn2c(=O)[nH]c3cccc(c32)CN1 | 190
14 | O=C(O)c1cccc2[nH]cc(Cc3ccc(OCc4ccc5ccccc5n4)cc3)c12 | 209 to 211
15 | CS(C)=Nc1nccnc1Cl | 106 to 108
16 | CCOCc1nnc2n1-c1ccc(Cl)cc1C(c1ccccc1)=NC2 | 168 to 170
17 | COC(C)(C)C#Cc1ncn2c1CN(C)C(=O)c1cc(F)ccc1-2 | 149 to 150
18 | CCOC(=O)C1(c2cccc(OCc3ccc4c(ccc(=O)n4C)c3)c2)CCOCC1 | 109 to 110
19 | CC1(CNC(=O)OCc2ccccc2)CCCCn2c1nc(-c1ccncn1)cc2=O (racemic) | 118 to 120
20 | COc1ccc2ccc3c4cc5c(cc4nnc3c2c1)OCO5 | 259 to 261
21 | O=C(NC1CCN(CCc2ccc(Cl)cc2)C1)C12CC3CC(CC(C3)C1)C2 (stereo unspecified) | 94 to 95
22 | CC(C)c1cc(Sc2cc(C(C)C)c(O)c(C(C)C)c2)cc(C(C)C)c1O | 93.5 to 94.2

Row | SMILES | melting point [°C]
23 | COC(=O)C1=C(CO)NC(C)=C(C(=O)OC(C)C)C1c1ccccc1[N+](=O)[O-] (stereo unspecified) | 135 to 137
24 | c1coc(-c2nc(NCC3CC3)cc(-n3cccn3)n2)c1 | 101 to 102
25 | OC(COCCCl)c1ccc2cc(OCc3ccccc3)ccc2c1 (stereo unspecified) | 86 to 87.5
26 | C[C@@H]1N=C(c2ccccc2F)c2c(ccc(N)c2Cl)N(C)C1=O | 222 to 226
27 | CO[C@H]1CC[C@H](C(=O)N2CCC(c3[nH]nc4c3C(=O)c3c(NC(=O)NN5CCOCC5)cccc3-4)CC2)CC1 | 178 to 180
28 | Nc1nnn(C2CN3CCC2CC3)n1 (stereo unspecified) | 132 to 134
29 | Cc1nc2cccc(C(F)(F)F)c2c(=O)n1C1CCC(=O)NC1=O (stereo unspecified) | 268 to 270
30 | C[C@@H]1Cc2ccsc2[C@H](c2ccccc2)N1CCNS(=O)(=O)c1ccc(NS(C)(=O)=O)cc1 (relative stereo) | 155 to 158
31 | Cc1c(C(=O)O)ccc(S(C)(=O)=O)c1-c1ccc(S(C)(=O)=O)cc1 | 214 to 215
32 | Cc1cc2ccccc2nc1-n1cncn1 | 80 to 81
33 | COC(=O)c1cc2cc(C(=O)c3cccc(C(C)C#N)c3)sc2s1 (stereo unspecified) | 163
34 | Cc1nc2ccccc2n1-c1ccccc1 | 46 to 48
35 | COc1ccc(C=O)cc1OC(=O)c1ccccc1 | 70 to 72
36 | Cc1cccc(CN2C(=O)C3(COc4cc5c(cc43)OCCO5)c3ccccc32)n1 (stereo unspecified) | 183 to 185
37 | Cc1cc(C)cc(Nc2nccc(-c3nc4ccccc4s3)n2)c1 | 217 to 219
38 | CNC(=O)c1cc(N2CCOCC2)cc([N+](=O)[O-])c1 | 204 to 207
39 | CC(C)C1(C)N=C(c2cc3c(nc2C(=O)O)COC3)NC1=O (stereo unspecified) | 115 to 118
40 | CCC(=O)c1ccc(-c2ccc(Cl)cc2)o1 | 66 to 68
41 | CSc1cc2c(cc1C(F)(F)F)N(C(=O)Nc1cccc(OCCCN(C)C)c1)CC2 | 149 to 151
42 | OCCCN1CCC(c2ccccc2)(c2ccccc2)CC1 | 97
43 | O=Cc1cc(-n2nnnc2C(F)(F)F)ccc1OC(F)(F)F | 40 to 42
44 | COc1cc(O)ccc1CCCc1ccc(O)cc1 | 88 to 89

The remaining lines, values ahead:

Row | melting point [°C] | SMILES
45 | 184 to 185 | Nc1c(-c2cc(Cl)ccc2O)c2cc(Cl)ccc2[nH]c1=O
46 | 163 to 164 | CCOC(=O)C(=CNc1sc(I)cc1C(=O)OC)C(=O)OCC
47 | 279 to 282 | O=c1c(Br)c[nH]c2c([N+](=O)[O-])cccc12
48 | 114 to 115 | COc1ccc(CNc2c(C)c(C)c3c(c2C)C(c2ccc(F)cc2)C(C)(C)O3)cc1 (stereo unspecified)
49 | > 220 | N=c1[nH]c(=O)c2nc[nH]c2c(=O)[nH]1
50 | 179 | Cc1ccc(=Nc2nnc(C(F)(F)F)s2)n(-c2cccc(C(F)(F)F)c2)c1
51 | 270 to 272 | O=C(O)c1cccc(-c2cc(-c3ccc(F)cc3)[nH]n2)c1
52 | 78 to 80 | N#Cc1ccc(OCC(O)CCCl)cc1 (stereo unspecified)
53 | 185 | Oc1ccc(CCCn2ccnc2S)cc1
54 | 198 to 200 | COC(=O)C(=Cc1ccc(OC)c(OC)c1)NC(C)=O
55 | 186 to 187 | Cc1cn(CCCCc2ccccc2)c2ccc(C(=O)Nc3cccc4c(=O)cc(-c5nnn[nH]5)oc34)cc12
56 | 112 to 114 | CCOC(=O)N1CC[C@@H]2CC(=O)c3cc([N+](=O)[O-])ccc3C[C@H]2C1 (relative stereo)
57 | 100 to 103 | COc1cccc(C(=NO)c2sccc2Br)c1
58 | 201 to 203 | O=c1c2c([nH]c3ccccc13)C(C1Cc3ccccc3O1)N(c1ncc(-c3ccccn3)cn1)C2 (stereo unspecified)
59 | 259 to 261 | CCOC(=O)c1cc2c(cn1)[nH]c1ccc(N3CCCC3)cc12
60 | 160 to 166 | CSc1nc2nsc(N)c2s1
61 | 167 to 168 | CC(=NO)C(C)(C)NCC(C)CNC(C)(C)C(Cn1ccnc1[N+](=O)[O-])=NO (stereo unspecified)
62 | 76 to 78 | Cc1cc(C)c(S(=O)(=O)NC(CSc2ccccc2)C(F)(F)F)c(C)c1 (stereo unspecified)
63 | 217 to 218 | O=[N+]([O-])c1ccc2oc(-c3ccc(Cl)cc3)nc2c1

Row | melting point [°C] | SMILES
64 | 161 to 162 | CC(C)n1c(CCN2CCN(c3cccc(C(F)(F)F)c3)CC2)nc2cc(Br)c3ccccc3c21
65 | 179 to 180 | COc1cccc([C@H]2O[C@H](CC(=O)Nc3cc(Cl)cc4cc(C(=O)O)oc34)C(=O)N(CC(C)(C)CO)c3ccc(Cl)cc32)c1OC
66 | 191 to 193 | Cc1ccc(-c2ccc(C(=O)Nc3cc4ncc(CN5CCCC5)cc4cc3C)cc2)cc1
67 | 59 | CN(C)C=Cc1ccc(OC(F)(F)F)cc1[N+](=O)[O-]
68 | 270 | Cc1csc2nc(-c3ccc(C(=O)O)cc3)nc(NCc3ccccc3)c12
69 | 213 to 216 | CNC1CCN(c2cc3c(cc2F)c(=O)c(C(=O)O)c2n3C(C)S2)C1 (stereo unspecified)
70 | 224 to 226 | CC(=O)Nc1ccc(C(=S)SCC(=O)O)cc1
71 | 124 to 128 | CC(C)Oc1ccc(-c2ccc3oc(C4CCN(C(=O)OC(C)(C)C)CC4)nc3c2)cc1F
72 | 124 | O=[N+]([O-])c1cc(CO)c(CO)cc1Oc1ccc(F)cc1F
73 | 81 | O=C1CSCc2cc(Br)ccc21
74 | 121 to 122 | CCOC(=O)COc1cc(Cl)c2c(=O)c(-c3ccc(OC)cc3)coc2c1
75 | 198 | Cc1ccc(C(=O)c2cc(-c3ccccc3)c(N3CCOCC3)s2)cc1
76 | > 250 | CNc1nc(C#N)c(C#N)nc1NC(C)(C)C
77 | 99 to 100 | CCCCCc1c(C)nc(C)c(CO)c1-c1ccccc1
78 | 265 | O=[N+]([O-])c1cc(Cl)c(N=C2NCCCN2)c(Cl)c1
79 | 235 to 237 | Cc1nnc2ccc(-c3cccc(N4CCCC4=O)c3)nn12
80 | 94 to 96 | CC(C)C(=O)OCCn1nc(-c2cc(C(C)(C)C)c(O)c(C(C)(C)C)c2)c2cccnc21
81 | 124 | COc1cc(-c2cccc(Cl)c2)c2cc(Br)ccc2n1
82 | 51 to 52 | CCCOc1ccc([N+](=O)[O-])cc1C=O

Row | melting point [°C] | SMILES
83 | 75.5 to 77 | CCOC(=O)C(CC(=O)c1ccc(Oc2ccc(Cl)cc2)cc1)SC(C)=O (stereo unspecified)
84 | 101 to 103 | CCOC(=O)C1=C(O)c2cc3ccccc3n2CC1
85 | 119 to 120 | COC(=O)c1cc(NC(C)=O)c([N+](=O)[O-])cc1C(=O)OC
86 | 160 to 161 | CCOC(=O)C1=CCCCC1S(=O)(=O)Nn1cccc1-c1ccccc1 (stereo unspecified)
87 | > 265 | Cc1ccc(Sc2cc3c(cc2Sc2ccc(C)cc2)C(=O)c2c(c(O)c4cc(Sc5ccc(C)cc5)c(Sc5ccc(C)cc5)cc4c2O)C3=O)cc1
88 | 70 | CC(C)(C)OC(=O)Cc1ccc(CNC(=O)C2Cc3ccccc3N2S(=O)(=O)c2ccc(-c3cccc(C(F)(F)F)c3)cc2)cn1 (stereo unspecified)
89 | 247 to 249 | O=c1nc(-c2ccccc2)c2ccsc2[nH]1
90 | 228 to 230 | Cc1cc(=O)[nH]c(=O)n1Cc1ccccc1
91 | 165 to 172 | CON=C(C(=O)OC)c1cc(Cl)nc(NC=O)n1
92 | 124 to 125 | C[C@@H](N1CC(=O)N(c2ccc(F)cc2F)C1=O)[C@@]1(c2ccc(F)cc2F)CO1
93 | 155 to 157 | CC(C)c1nc(C(N)(C(F)(F)F)C(F)(F)F)[nH]c1-c1ccc(S(C)(=O)=O)cc1
94 | 287 to 290 | O=C1Nc2ccc(Br)cc2C1c1ncnc2c1cnn2C1CCCC1 (stereo unspecified)
95 | 68 to 70 | CN1NC(Oc2cc(F)ccc2[N+](=O)[O-])=CC1C(F)(F)F (stereo unspecified)
96 | 54 to 55 | CCOC(=O)C1=Cc2cccc(SC)c2OCC1
97 | 88 | COc1ccc(CCNCC(O)c2ccccc2OC)cc1OC (stereo unspecified)
98 | 105 to 107 | CC1(CCl)CC(SCc2c(C(F)(F)F)n[nH]c2Cl)=NO1 (stereo unspecified)
99 | 74 to 78 | c1nc(SCC2CCCCC2)n[nH]1
100 | 232 to 234 | O=C1C(c2cccc(-c3ccccc3)c2)n2cncc2CN1Cc1ccccc1 (stereo unspecified)
101 | 64 to 68 | CC(COc1ccc(CC2SC(=O)NC2=O)cc1)NCC(O)COc1ccccc1 (stereo unspecified)
